# Laboratory results published in patent US7153822B2, “Compositions and methods for modulating connexin hemichannels” (Wyeth, priority 2002, dated 2006).
# “Also recorded” adds a separate entry of the source. Square brackets hold non-standard residues; d marks the D form. Peptide text beside a SMILES is read from it. dHyp = O=C(O)[C@H]1C[C@H](O)CN1
# What was measured:
# [1] = tested on: connexin hemi-channels; assay: calcein dye uptake in cardiomyocytes under ischemia mimicking solution (Example 4); assay type: cell-based, rat; conditions: 10 nM co-incubation during metabolic stress (stress alone 38% higher), n=6
# Protocol: 1. Cell culture: Briefly, the hearts from 20 neonate rats (age 1–2 days) were excised aseptically. The ventricles were isolated and cut into 4–6 pieces, which are digested in several steps in a Hanks buffered saline with trypsin and DNAse. The cells were then centrifuged and resuspended in MEM with 5% FCS. To eliminate non-muscle cells the suspension was preplated in petri dishes for 30 minutes at 37° C. The cells in suspesion were then seeded onto collagen coated coverslips.
# 2. Dye-uptake: The cover slips with cardiomyocytes were incubated for 30 minutes with control solution (PBS) containing in mM: Na^+ 152, K^+ 4.2, Cl^− 141.5, PO4^3− 9.5, Ca^2+ 0.9, Mg^2+ 0.5, glucose 6, pH 7.4. or an ischmia mimicking (injury) solution (as control only K^+ 8.2, no glucose, 10 mM deoxy-glucose, pH 6.5), both solutions containing 200 μM calcein. Then the cells were washed for 10 minutes with control solution.
# The cover slips were mounted in an open chamber on the stage of an inverted microscope. Ten random fields were chosen and from each field three cells were chosen under conventional light microscopy. Then the cells were excited by 480 nm light and the fluorescence emmision measured at 510 nm, where the emission intensity is a measure of dye-uptake.
# The effect of the compound 1 on dye-uptake was investigated under two conditions: […]
# [2] = tested on: infarcted mice; assay: bone marrow cell transplantation after myocardial infarction (design of Orlic et al); assay type: in vivo; conditions: repeated administration during the proliferation process
# From the text: Myocardial infarction leads to loss of tissue and impairment of cardiac performance. The remaining myocytes are unable to reconstitute the necrotic tissue, and the post-infarcted heart deteriorates with time. Injury to a target organ is sensed by distant stem cells, which migrate to the site of damage and undergo alternate stem cell differentiation; these events promote structural and functional repair. This high degree of stem cell plasticity prompted Orlic et al (Nature 410, 701–705 (2001)) to test whether dead myocardium could be restored by transplanting bone marrow cells in infarcted mice. They sorted lineage-negative (Lin−) bone marrow cells from transgenic mice expressing enhanced green fluorescent protein by fluorescence-activated cell sorting on the basis of c-kit expression. Shortly after coronary ligation, Lin− c-kitPOS cells were injected in the contracting wall bordering the infarct. […] The developing tissue comprised proliferating myocytes and vascular structures. Their studies indicate that locally delivered bone marrow cells can generate de novo myocardium, ameliorating the outcome of coronary artery disease. […]
# [3] = tested on: neonatal rat ventricular cardiomyocytes; conditions: cited from earlier work
# [4] = tested on: the receptor; assay: in situ binding and animal studies
# Protocol: Compounds used in this example were made using standard solid phase Fmoc chemistry. See the prior examples. Identification was performed by mass spectrometry, and the purity, determined by RP-HPLC. […] Initial studies with compound 1 in 1 nM, 10 nM, 50 nM and 100 nM will determine whether studies with the following peptides compound 3 (H-GAG-4-Hyp-PY-NH2) and compound 4 (H-GNY-NH2) are conducted. These studies will also determine whether studies involving specific kinase inhibitors are conducted.
# [5] = tested on: Ventricular myocytes; assay: volume measurements in cardiomyocytes during metabolic inhibition; assay type: cell-based, rat; conditions: 0.1 nM in stress medium, six experiments (stress alone 1.06±0.02, control 0.94±0.04)
# Protocol: 1. Methods: Ventricular myocytes were isolated from neonate rats by trypsin digestion and plated onto collagen-coated cover slips. After four days the myocytes formed confluent and synchronously beating sheets of cells. To measure cell volume cells were loaded with calcein-AM (5 μM in control buffer) for 15 minutes at 37° C. and the cover slips mounted in an open bath chamber. The following experiments were performed at room temperature. Using a Leica laser confocal microscope, an optical cross-section was performed every 20 seconds throughout the duration of the experiments.
# The optical cross-sections were analyzed using Metamorph (Universal Imaging). The area of the cell was determined as the area of pixels with fluorescence intensities higher than a threshold value chosen to minimize background induced fluctuations. Data are presented as relative volumes by dividing each value by the average area under control conditions (the last measurement before metabolic stress).
# Solutions: Control buffer (in mM): NaCl 136, KCl 4, MgCl2 0.8, CaCl2 1.8 HEPES 5, MES 5, Glucose 6, pH 7.3 Stress buffer (in mM): NaCl 136, KCl 8, MgCl2 0.8, CaCl2 1.8 HEPES 5, MES 5, Deoxy-glucose 10, pH 6.2
# [6] = tested on: connexin 43 (Cx43); assay: immunoprecipitation and immunoblot of phosphorylated connexin 43; assay type: cell-based
# Protocol: H9c2 cells were seeded in 24-multi well dishes in a density of 7,900 cells/cm^2 (˜15,000 cells/well) and grown for 3 days in MEM suplemented with 10% foetal calf serum (FCS) and 1000 units penicillin/1000 μg streptomycin (pen/strep) in an atmosphere of 5% CO2 and 100% humidity at 37° C.
# The labelled cells were incubated in Triton X-100 lysis buffer (˜5*10^7 cells/ml) for 1 hr at 4° C. The lysate is centrifuged 30 min at 20,000*g for 30 min. The supernatant was precleared by adding 10 ul Sepharose per 200 μl supernatant. The precleared supernatant were then added 0.5–1 μg phospho-tyrosine or phospho-serine antibodies (Sigma) and incubated for 1.5 hr at 4° C. in an orbital shaker. The antibody-complex was then captured by incubation with 50 μl of a 1:1 slurry of protein G Sepharose for 1.5 hr. Finally the complex were extensively washed with 0.1% (w/v) Triton X-100, 50 mM Tris, pH 7.4, 300 mM NaCl and 5 mM EDTA.
# The complexes were loaded onto a 12% SDS gel and blotted onto a PVDF membrane. The membrane is blocked with 0.1% Tween 20, 50 mM Tris, pH 7.4, 300 mM NaCl, 5% dry milk (TBST) for minimum 2 h. The membrane was subsequently incubated with connexin 43 specific antibodies (Zymed) for 1.5 h at RT and developed with ECL+ (Amersham).
compound,measurement,setting,value
"CC(=O)N[C@H](Cc1ccc(O)cc1)C(=O)N1CCC[C@@H]1C(=O)N1C[C@@H](O)C[C@@H]1C(=O)NCC(=O)N[C@H](C)C(=O)NCC(N)=O [Compound 1, Ac-D-Tyr-D-Pro-D-4Hyp-Gly-D-Ala-Gly-NH2] (Ac-[dY][dP][dHyp]G[dA]G-NH2)",calcein dye uptake above control cells,[1],5%
same,connexin 43 expression,[2],increase in connexin 43 expression
same,"noradrenalin-induced PI turnover, level relative to normal",[3]; during oxygen and glucose deprivation (untreated app. 50%),~90 % of the normal level
same,noradrenalin-induced level of PI turnover,[3]; normal atmospheric and nutritional conditions,does not alter
same,binding to the receptor,[4],nano-molar range
same,average relative volume during stress,[5],0.93±0.05
same,connexin 43 tyrosine phosphorylation,"[6]; cardiomyocytes exposed for 4 h with 0, 1, 10, 50 and 100 nM",increase connexin 43 tyrosine phosphorylation
same,tyrosine phosphorylation of connexin 43,[6]; cultured H9c2 cardiomyocytes,phosphorylation of Cx43 tyrosine; also recorded: mediates tyrosine phosphorylation of connexin 43
same,Ser-phosphorylation of connexin 43,[6]; in some experiments,decrease Ser-phosphorylation
